Results: patent EP0108147B1, “Use of a protoberberine alkaloid and composition containing same” (MAROKO, Peter R., priority 1982, dated 1983)
Like-named read-outs stand apart in the source and are kept apart here.

Columns and labels:
Mongrel dogs = assay: Protocol HV: acute left ventricular failure by coronary microsphere embolization, closed chest; format: in vivo; conditions: for overall result in the model of acute left ventricular failure / preload reduction: dog, in vivo
Experimental: - Experiments were carried out in 21 mongrel dogs of either sex with body weight between 19 and 39 kg. Anesthesia was induced with sodium pentobarbital, 25 mg/kg of body weight intravenously, and small supplementary doses were given as necessary to maintain a constant level of anesthesia. The dogs were placed in the left lateral position and ventilation was maintained through a cuffed endotracheal tube with a volume-controlled respirator (Harvard Apparatus Co., Millis, Massachusetts). Polyethylene cannuleae were placed into the jugular and femoral veins for intravenous infusions and drug adminstration. Electrocardiograms (lead aVF) were monitored continuously throughout the experiments.
A polyethylene cannula was introduced into the aorta through the left carotid artery to record arterial pressure. (Stantham P23 ID transducer, Stantham Instruments, Inc. Oxnard, California). A Millar microtip transducer catheter (Millar Instruments, Inc., Houston, Texas) was introduced into the left ventricular cavity through the femoral artery to measure left ventricular pressures. For adjustment of zero level, left ventricular pressure was also measured through the fluid-filled lumen in the Millar catheter (Statham P23 ID transducer). The maximal rate of rise of left ventricular pressure, LV dP/dt, was recorded by means of a differentiator. All these parameters were recorded continuously on a polygraph (Gould 2800, Gould Instruments, Cleveland, Ohio). Cardiac output was determined by the thermodilution technique, using a thermistor catheter in the pulmonary artery and calculated by a cardiac output computer (Elecath, Electro- catheter Corp., Rahway, New Jersey). The coefficient of variation for duplicate CO measurements was 5%. In addition to the parameters directly obtained, total peripheral vascular resistance was calculated from the ratio of […] and cardiac output. Stroke volume was calculated by dividing cardiac output by heart rate. Heparin (Invendex) (5000 IU) was administered to avoid clotting of the catheters.
To induce acute left vetricular failure, initially the left main coronary artery was catheterized with a Judkin coronary artery catheter (7F, ISCI Cardiology and Radiology Products, Billerica, Massachusetts) under fluoroscopic control. It was introduced through a femoral artery, and polystyrene microspheres (3M Company, St. Paul, Minnesota) with a diameter of 52. 5 ± 4.0 µm (mean±SD) were injected into the coronary artery. The microspheres were used in a concentration of 1 mg (i.e., 12,000) per ml saline. The first dose of microsphere solution was 0.5 mi/kg body weight, and all subsequent doses were 0.25 ml/kg body weight, administered every 5 minutes. Administration of microspheres was discontinued when LV/dP/dt had been reduced by 30% or more when measured 4 minutes after the last dose. All dogs received prophylactic antiarrhythmic treatment with intravenous lidocaine, 1.5 mg/kg body weight as a bolus 20 min after the end of embolization, followed by a continuous infusion of […].
Forty-five minutes were allowed to elapse to verify the stability of the preparation. If Lv dP/dt or left ventricular end diastolic pressure had changed by 20% or more between 30 and 45 minutes after embolization, the dogs were excluded from this study and not randomized. Forty-five minutes after the end of embolization, the dogs were assigned randomly to three groups: a) Berberine-treated group, 0.2 mg/kg/ min, dissolved in 60 ml of a solution of 5% dextrose in water administered in a constant infusion during 30 minutes; b) ouabain-treated group, 0.03 mg/kg was administered in 60 ml of a 5% solution of dextrose in water during 30 minutes; and c) Control group, administration of 60 ml of a 5% solution of dextrose in water during 30 min. […]

[1] = tested on: healthy adult mongrel dogs; assay: Protocol M: hemodynamics in anesthetized open-chest dogs, systolic arterial pressure held constant; format: in vivo
Experimental: The experimental work was carried out as follows: Twelve healthy adult mongrel dogs (20-30 kg) of both sexes were anesthetized with intravenous sodium pentobarbital (25 mg/kg). A left thoractomy was performed through the fifth intercostal space. Catheters were placed to record left atrial, left ventricular and aortic pressures. Descending aortic blood flow was measured with an electromagnetic flowmeter. Heart rate (HR) was calculated using electocardiographic recording, lead aVF. All parameters were recorded on a Gould polygraph. The dogs were randomly assigned either to the control or to the treated group. Six of the dogs were in the control group and these dogs were infused with a placebo, namely the vehicle used for the drug tested. […] Berberine (as the hydrochloride salt) was administered to six anesthesized dogs (barbiturate). The dose was 0.7 mg/kg/min. intravenously infused durng 5 minutes. This dose was repeated after 45 minutes. Systolic arterial pressure was maintained at a constant rate using a reservoir full of blood under constant pressure connected to the femoral artery. Whenever the arterial pressure was not maintained constant in the work reported (and allowed to drop) appropriate reference is made herein to that fact. Systemic arterial pressure was maintained at a constant rate in order to obtain accurate dP/dt since this parameter is of extreme importance in these studies. However, as a consequence, the vascular peripheral resistence, when described as a function of mean aortic pressure, was higher than if the pressure would be allowed to fall with the administration of the compound. Therefore, the reduction calculated total peripheral resistence is underestimated. Also dP/dt is less increased when bradycardia (lower heart rate) occurs and since heart rate was allowed to fall (which is the effect of the drug), the increase in dP/dt reported here is actually underestimated as compared to preparations in which heart rate would have been maintained constant. In Tables I to IX the results of these experiments are presented. The first two lines presents the studied parameter in absolute values, the third line representing the "t" values used in Student's t test for group observation, between the treated and control groups. The fourth line presents the level of significance. The next four lines give the values as changes (Δ) from the value before treatment to the value after treatment. The third set of values represent the changes in percent. The last two sets of two lines represent the paired t-test values and the derived p values obtained by analyzing the data from before the infusion of the drug (last set of two lines) or the placebo (next to last set of two lines), in the subsequent time interval (i.e. after infusion). Therefore, each dog serves as his own control, thus increasing the statistical value of the tests. […] Thus, the calculated peripheral resistance increased by 18% (P <0.02).

[2] = tested on: closed-chest anesthetized dogs; conditions: for change of diastolic pressure: berberine in addition to digitalis; for antiarrhythmic and antiarrhythmogenic result in the ouabain experiment: dog, in vivo
Experimental: A study was carried out to examine the effects of the simultaneous administration of berberine on digitalis (i.e. ouabain) produced arrhythmias.
The experiments were conducted in closed-chest anesthetized dogs which were randomized to three groups. All received ouabain 0.03 mg/Kg as a bolus intravenously and thereafter a continuous infusion with a constant rate of 0.0006 mg/Kg/min until death. […] The second group received simultaneously berberine 1 mg/Kg intravenously as a bolus and then 0.2 mg/Kg/min as a continous infusion. The third group received berberine only after the appearance of VEA in a frequency of 50% of more of all systoles.
Moreover, the effects of intravenous bolus injection of berberine (0.4 to 1 mg/Kg) was studied (in comparison to dextrose 5% injection).

[3] = berberine started after the appearance of 50% of VEA

## COc1ccc2cc3[n+](cc2c1OC)CCc1cc2c(cc1-3)OCO2 [berberine]
Mongrel dogs; 0.2 mg/kg/min infusion
  time to increase of LVdP/dt and reduction of left ventricular end diastolic pressure: ≤ 2.5 min
Mongrel dogs; 0.2 mg/kg/min, 30 min
  Diastolic and mean arterial pressure: significantly although only slightly reduced
  Systolic arterial pressure: not significantly changed
  decrease of total peripheral vascular resistance: 19 ± 2%
  fall of heart rate: 8 beats/min
Mongrel dogs; 0.2 mg/kg/min, end of the 30-minute infusion
  increase of LVdP/dt: 28 ± 8%
Mongrel dogs; after infusion, from 1.76 ± 0.15
  cardiac output: 1.93 ± 0.16 L/min
Mongrel dogs; after infusion, from 14.6 ± 1.9
  Stroke volume: 17.3 ± 2.7 mL
Mongrel dogs; after infusion, from 28 ± 2
  pulse pressure: 33 ± 4 mmHg
Mongrel dogs; after infusion, from 4915 ± 559
  Total peripheral vascular resistance: 4004 ± 496 10^-5N·S·cm^-5
Mongrel dogs; end of the 30-minute infusion
  decrease of left venticular end diastolic pressure: 38 ± 4%
Mongrel dogs; end of the 30-minute infusion, from 13.3 ± 0.8
  Left venticular end diastolic pressure: 8.1 ± 0.5 mmHg
Mongrel dogs; end of the 30-minute infusion, from 1572 ±80
  LVdP/dt: 2010 ± 95 mmHg/s
[1]; after treatment, from 84 before
  diastolic aortic pressure (DAP): 62 mmHg
[1]; descending aorta
  increase in peak blood flow velocity: ~50%
[1]; dog, in vivo
  arrhythmias during the experimental period: did not develop any type of arrhythmias
  drop of DAP: 20 mmHg
  reduction in HR: 9 beats/min
[1]; end of experiment
  difference in dP/dt between the control group and the berberine-treated group: 50%
[1]; end of experiment, 0.7 mg/kg/min i.v. 5 min, repeated after 45 min, control 2009 ± 132
  dP/dt maximum of the left ventrical: 2974 ± 121 mmHg/s
[1]; first vs last column of Table III
  increase in the acceleration of blood flow (dF/dt): ~65%
[1]; initial 1 or 2 mmHg
  mean left artrial pressure (LAP): no change
[1]; normal, averaging 3 mmHg
  left ventricular end diastolic pressure (LVEDP): no change
[1]; summary statement
  increase of dF/dt: at least 50%
  increase of dP/dt: at least 50%
[2]; after 60 minutes, all sixteen controls had
  occurrence of any arrhythmias (VEA more than 25%, VT or death): three had arrhythmias and six did not
[2]; after 90 minutes, all controls had
  occurrence of any arrhythmias (VEA more than 25%, VT or death): four had arrhythmias and five did not
[2]; at 30 minutes, control twelve had, four did not
  occurrence of any arrhythmias (VEA more than 25%, VT or death): one had arrhythmia and eight did not
[2]; at 45 minutes, control fourteen had, two did not
  occurrence of any arrhythmias (VEA more than 25%, VT or death): three had arrhythmias and six had not
[2]; 10 minutes
  change of diastolic pressure: -9±5%
[2]; 20 minutes
  change of diastolic pressure: -13±9%
[2]; 30 minutes
  change of diastolic pressure: -13±10%
[2]; 60 minutes
  change of diastolic pressure: -20±11%
[2]; [3]
  amount of ouabain that provoked VT: 0.080 mg/kg
  delay of the appearance of sustained VT: more than 250%
[2]; berberine started after the appearance of 50% of VEA, control 30.1±6.5
  time of appearance of sustained VT: 84.5 ± 13.8 min
[2]; berberine treated dogs (simultaneous)
  dose of ouabain to provoke VT: 0.088 mg/kg
[2]; intravenous bolus 0.4 to 1 mg/Kg, placebo none of twelve
  injections effective in reverting VT into sinus rhythm within five minutes: 30 out of 41
[2]; ouabain infusion + simultaneous berberine 1 mg/Kg bolus then 0.2 mg/Kg/min, controls 22±4.7
  time of appearance of 25% of VEA: 66.5 ± 14.6 min
[2]; simultaneous berberine
  prolongation of the time of appearance of VEA and VT: around 300%
[2]; simultaneous berberine, controls 23.9±4.7
  time of appearance of 50% of VEA: 66.7 ± 15.3 min
[2]; simultaneous berberine, controls 30.1±6.5
  time of appearance of VT: 96.1 ± 15.1 min
[2]; two berberine dogs
  ventricular fibrillation: ventricular fibrillation reverted without any other therapy

## COc1ccc2cc3[n+](cc2c1O)CCc1cc2c(cc1-3)OCO2 [berberrubine]
Mongrel dogs
  overall result in the model of acute left ventricular failure: perform in an equivalent manner
  preload reduction: comparable preload reduction
[1]; dog, in vivo
  result of the corresponding Protocol M experiments (dP/dt, peak blood flow, acceleration of flow, heart rate, diastolic pressure): like results are obtained
[2]
  antiarrhythmic and antiarrhythmogenic result in the ouabain experiment: satisfactory results

## COc1cc2c(cc1O)C[C@H]1c3cc(O)c(OC)cc3CCN1C2 [coreximine]
Mongrel dogs
  overall result in the model of acute left ventricular failure: perform in an equivalent manner
  preload reduction: comparable preload reduction
[1]; dog, in vivo
  result of the corresponding Protocol M experiments (dP/dt, peak blood flow, acceleration of flow, heart rate, diastolic pressure): like results are obtained
[2]
  antiarrhythmic and antiarrhythmogenic result in the ouabain experiment: satisfactory results
